In patent US11578130B2, “Regulatable chimeric antigen receptor” (Novartis AG, priority 2013, dated 2023):

Assays:
Assay type in all cases: in vivo, human
[1] = system: influenza vaccine strains; experiment: Clinical trial: serologic response to 2012 seasonal influenza vaccine, primary endpoint across the 3 vaccine strains (HI GMT ratio); conditions: for primary endpoint of the study (HI GMT ratio versus placebo): ITT population
[2] = system: PD-1-positive CD4, CD8 and PD-1-negative CD4 T cells; experiment: FACS analysis of PBMC for PD-1-positive and PD-1-negative T cells after RAD001 treatment; conditions: adjusted for differences in baseline PD-1 expression; for decrease in PD-1-positive CD8 T cells: pooled RAD001 cohort compared to placebo cohort
[3] = Clinical trial in elderly volunteers: adverse events, safety and tolerability; conditions: for Blood cholesterol increased, treatment-related AE / Conjunctivitis, treatment-related AE / Diarrhea, treatment-related AE / Dry mouth, treatment-related AE / Dyspepsia, treatment-related AE / Erythema, treatment-related AE / Fatigue, treatment-related AE / Headache, treatment-related AE / Insomnia, treatment-related AE / Limb discomfort, treatment-related AE / Low density lipoprotein increased, treatment-related AE / Mouth ulceration, treatment-related AE / Mucosal inflammation, treatment-related AE / Neutropenia, treatment-related AE / Oral pain, treatment-related AE / Paresthesia oral, treatment-related AE / Patients with AE(s), treatment-related / Pruritus, treatment-related AE / Stomatitis, treatment-related AE / Thrombocytopenia, treatment-related AE / Tongue ulceration, treatment-related AE / Total AE(s), treatment-related / Urinary tract infection, treatment-related AE: N = 53
[4] = system: A/H3N2 strain A/Victoria/361/11; experiment: Clinical trial: HI titers and seroconversion, heterologous A/H3N2 strain
[5] = system: H1N1 A/California/07/2009; experiment: Clinical trial: hemagglutination inhibition titers and seroconversion, vaccine strain A/H1N1
Experimental: The trial was observer-blind because the placebo in the RAD001 0.5 mg daily and 20 mg weekly cohorts differed slightly from the RAD001 tablets in those cohorts. […] The treatment duration for all cohorts was 6 weeks during which time subjects underwent safety evaluations in the clinic every 2 weeks. After subjects had been dosed for 4 weeks, RAD001 steady state levels were measured pre-dose and at one hour post dose. After completing the 6 week course of study drug, subjects were given a 2 week drug free break to reverse any possible RAD001-induced immunosuppression, and then were given a 2012 seasonal influenza vaccination (Agrippal®, Novartis Vaccines and Diagnostics, Siena, Italy) containing the strains H1N1 A/California/07/2009, H3N2 A/Victoria/210/2009, B/Brisbane/60/2008. Four weeks after influenza vaccination, subjects had serum collected for influenza titer measurements. Antibody titers to the 3 influenza vaccine strains as well as to 2 heterologous strains (A/H1N1 strain A/New Jersey/8/76 and A/H3N2 strain A/Victoria/361/11) were measured by standard hemagglutination inhibition assay (Kendal, A P et al. (1982) Concepts and procedures for laboratory-based influenza surveillance. Atlanta: Centers for Disease Control and Prevention B17-B35).
The ability of RAD001 to improve immune function in elderly volunteers was evaluated by measuring the serologic response to the 2012 seasonal influenza vaccine. The hemagglutination inhibition (HI) geometric mean titers (GMT) to each of the 3 influenza vaccine strains at baseline and 4 weeks after influenza vaccination are provided in Table 22. The primary analysis variable was the HI GMT ratio (4 weeks post vaccination/baseline). […] This endpoint was chosen because a 1.2-fold increase in the influenza GMT ratio induced by the MF-59 vaccine adjuvant was associated with a decrease in influenza illness (Iob, A et al. (2005) Epidemiol Infect 133:687-693).
Rates of seroconversion 4 weeks after influenza vaccination were also evaluated. Seroconversion was defined as the change from a negative pre-vaccination titer (i.e., HI titer <1:10) to post-vaccination HI titer ≥1:40 or at least 4-fold increase from a non-negative (≥1:10) pre-vaccination HI titer.

## CO[C@H]1C[C@@H]2CC[C@@H](C)[C@@](O)(O2)C(=O)C(=O)N2CCCC[C@H]2C(=O)O[C@H]([C@H](C)C[C@@H]2CC[C@@H](OCCO)[C@H](OC)C2)CC(=O)[C@H](C)/C=C(\C)[C@@H](O)[C@@H](OC)C(=O)[C@H](C)C[C@H](C)/C=C/C=C/C=C/1C [RAD001, (1R,9S,12S,15R,16E,18R,19R,21R,23S,24E,26E,28E,30S,32S,35R)-1,18-dihydroxy-12-{(1R)-2-[(1S,3R,4R)-4-(2-hydroxyethoxy)-3-methoxycyclohexyl]-1-methylethyl}-19,30-dimethoxy-15,17,21,23,29,35-hexamethyl-11,36-dioxa-4-aza-tricyclo[30.3.1.04,9]hexatriaconta-16,24,26,28-tetraene-2,3,10,14,20-pentaone]
[1]; RAD001 0.5 mg daily or 5 mg weekly
  primary endpoint of the study (HI GMT ratio versus placebo): met the GMT primary endpoint
[1]; RAD001 20 mg weekly
  primary endpoint of the study (HI GMT ratio versus placebo): but not higher dose (20 mg weekly) cohort met the primary endpoint
[1]; human, in vivo
  increase in influenza titers in subgroup: greater RAD001-associated increase in titers than did the ITT population
[2]; week 6
  decrease in PD-1-positive CD8 T cells: 37.4%
[2]; week 6, pooled RAD cohort compared to placebo cohort
  decrease in PD-1+ CD4 T cells: 30.2%
[2]; week 12
  decrease in PD-1-positive CD8 T cells: 41.4%
[2]; week 12, pooled RAD cohort compared to placebo cohort
  decrease in PD-1-positive CD4 T cells: 32.7%
[3]; RAD001 0.5 mg daily
  Blood cholesterol increased, treatment-related AE: 2 (3.8%) n (%)
  Conjunctivitis, treatment-related AE: 0 n (%)
  Diarrhea, treatment-related AE: 1 (1.9%) n (%)
  Dry mouth, treatment-related AE: 0 n (%)
  Dyspepsia, treatment-related AE: 0 n (%)
  Erythema, treatment-related AE: 0 n (%)
  Fatigue, treatment-related AE: 0 n (%)
  Headache, treatment-related AE: 0 n (%)
  Insomnia, treatment-related AE: 1 (1.9%) n (%)
  Limb discomfort, treatment-related AE: 0 n (%)
  Low density lipoprotein increased, treatment-related AE: 2 (3.8%) n (%)
  Mouth ulceration, treatment-related AE: 6 (11.3%) n (%)
  Mucosal inflammation, treatment-related AE: 0 n (%)
  Neutropenia, treatment-related AE: 0 n (%)
  Oral pain, treatment-related AE: 0 n (%)
  Paresthesia oral, treatment-related AE: 2 (3.8%) n (%)
  Patients with AE(s), treatment-related: 22 (41.5%) n (%)
  Pruritus, treatment-related AE: 0 n (%)
  Stomatitis, treatment-related AE: 0 n (%)
  Thrombocytopenia, treatment-related AE: 0 n (%)
  Tongue ulceration, treatment-related AE: 3 (5.7%) n (%)
  Total AE(s), treatment-related: 35 n (%)
  Urinary tract infection, treatment-related AE: 0 n (%)
[3]; RAD001 5 mg weekly
  Blood cholesterol increased, treatment-related AE: 2 (3.8%) n (%)
  Conjunctivitis, treatment-related AE: 2 (3.8%) n (%)
  Diarrhea, treatment-related AE: 4 (7.5%) n (%)
  Dry mouth, treatment-related AE: 0 n (%)
  Dyspepsia, treatment-related AE: 3 (5.7%) n (%)
  Erythema, treatment-related AE: 2 (3.8%) n (%)
  Fatigue, treatment-related AE: 2 (3.8%) n (%)
  Headache, treatment-related AE: 2 (3.8%) n (%)
  Insomnia, treatment-related AE: 2 (3.8%) n (%)
  Limb discomfort, treatment-related AE: 2 (3.8%) n (%)
  Low density lipoprotein increased, treatment-related AE: 1 (1.9%) n (%)
  Mouth ulceration, treatment-related AE: 2 (3.8%) n (%)
  Mucosal inflammation, treatment-related AE: 0 n (%)
  Neutropenia, treatment-related AE: 0 n (%)
  Oral pain, treatment-related AE: 2 (3.8%) n (%)
  Paresthesia oral, treatment-related AE: 0 n (%)
  Patients with AE(s), treatment-related: 20 (37.7%) n (%)
  Pruritus, treatment-related AE: 2 (3.8%) n (%)
  Stomatitis, treatment-related AE: 0 n (%)
  Thrombocytopenia, treatment-related AE: 0 n (%)
  Tongue ulceration, treatment-related AE: 1 (1.9%) n (%)
  Total AE(s), treatment-related: 46 n (%)
  Urinary tract infection, treatment-related AE: 0 n (%)
[3]; RAD001 20 mg weekly
  Blood cholesterol increased, treatment-related AE: 2 (3.8%) n (%)
  Conjunctivitis, treatment-related AE: 0 n (%)
  Diarrhea, treatment-related AE: 1 (1.9%) n (%)
  Dry mouth, treatment-related AE: 2 (3.8%) n (%)
  Dyspepsia, treatment-related AE: 2 (3.8%) n (%)
  Erythema, treatment-related AE: 0 n (%)
  Fatigue, treatment-related AE: 4 (7.5%) n (%)
  Headache, treatment-related AE: 9 (17.0%) n (%)
  Insomnia, treatment-related AE: 1 (1.9%) n (%)
  Limb discomfort, treatment-related AE: 0 n (%)
  Low density lipoprotein increased, treatment-related AE: 2 (3.8%) n (%)
  Mouth ulceration, treatment-related AE: 9 (17.0%) n (%)
  Mucosal inflammation, treatment-related AE: 2 (3.8%) n (%)
  Neutropenia, treatment-related AE: 3 (5.7%) n (%)
  Oral pain, treatment-related AE: 1 (1.9%) n (%)
  Paresthesia oral, treatment-related AE: 0 n (%)
  Patients with AE(s), treatment-related: 27 (50.9%) n (%)
  Pruritus, treatment-related AE: 1 (1.9%) n (%)
  Stomatitis, treatment-related AE: 2 (3.8%) n (%)
  Thrombocytopenia, treatment-related AE: 2 (3.8%) n (%)
  Tongue ulceration, treatment-related AE: 0 n (%)
  Total AE(s), treatment-related: 109 n (%)
  Urinary tract infection, treatment-related AE: 2 (3.8%) n (%)
[3]; elderly volunteers, 6 weeks, particularly 0.5 mg daily and 5 mg weekly dosing regimens
  tolerability: well tolerated
[3]; subject treated with 20 mg weekly RAD001
  number of severe AEs assessed as related to RAD001 (mouth ulcers): one
[4]; RAD001 0.5 mg daily
  Percentage of subjects who seroconvert to heterologous strain 4 weeks after seasonal influenza vaccination, A/H3N2 strain: A/Victoria/361/11: 38%
[4]; RAD001 5 mg weekly, * p-value < 0.05 versus placebo
  Percentage of subjects who seroconvert to heterologous strain 4 weeks after seasonal influenza vaccination, A/H3N2 strain: A/Victoria/361/11: 39%*
[4]; RAD001 20 mg weekly, * p-value < 0.05 versus placebo
  Percentage of subjects who seroconvert to heterologous strain 4 weeks after seasonal influenza vaccination, A/H3N2 strain: A/Victoria/361/11: 40%*
[4]; RAD001 as compared to placebo cohorts
  increase in the HI GMT ratios for the heterologous strain: higher
[4]; pooled RAD001 cohorts, versus 20% placebo (p=0.007)
  H3N2 seroconversion rate, heterologous strain: 39%
[5]; Baseline (2 weeks prior to influenza vaccination), RAD001 0.5 mg daily, N = 50
  HI GMT, A/H1N1: 102.8
[5]; Baseline (2 weeks prior to influenza vaccination), RAD001 5 mg weekly, N = 49
  HI GMT, A/H1N1: 84.2
[5]; Baseline (2 weeks prior to influenza vaccination), RAD001 20 mg weekly, N = 49
  HI GMT, A/H1N1: 90.1
[5]; Intention to Treat Population, 0.5 mg, N = 48
  Percent of subjects with seroconversion to influenza 4 weeks after vaccination, H1N1: 27%
[5]; Intention to Treat Population, 5 mg, N = 49
  Percent of subjects with seroconversion to influenza 4 weeks after vaccination, H1N1: 27%
[5]; Intention to Treat Population, 20 mg, N = 48
  Percent of subjects with seroconversion to influenza 4 weeks after vaccination, H1N1: 17%
[5]; RAD001 0.5 mg daily, N = 50
  GMT ratio (week 4 post vaccination/baseline), A/H1N1: 2.6
[5]; RAD001 5 mg weekly, N = 49
  GMT ratio (week 4 post vaccination/baseline), A/H1N1: 2.5
[5]; RAD001 20 mg weekly, N = 49
  GMT ratio (week 4 post vaccination/baseline), A/H1N1: 1.8
[5]; Subjects with Baseline Titers <=40, 0.5 mg
  Percent of subjects with seroconversion to influenza 4 weeks after vaccination, H1N1: 42%
[5]; Subjects with Baseline Titers <=40, 5 mg
  Percent of subjects with seroconversion to influenza 4 weeks after vaccination, H1N1: 45%
[5]; Subjects with Baseline Titers <=40, 20 mg
  Percent of subjects with seroconversion to influenza 4 weeks after vaccination, H1N1: 36%
[5]; Week 4 after influenza vaccination, RAD001 0.5 mg daily, N = 50
  HI GMT, A/H1N1: 190.2
[5]; Week 4 after influenza vaccination, RAD001 5 mg weekly, N = 49
  HI GMT, A/H1N1: 198.73
[5]; Week 4 after influenza vaccination, RAD001 20 mg weekly, N = 49
  HI GMT, A/H1N1: 129.7
